We go through twelve compounds from patent US12180178B2, “Heteroaryl azole compound and pest control agent” (NIPPON SODA CO., LTD., priority 2018, dated 2024).

Holding throughout (type): in vivo
In one assay the test system is Phyllotreta striolata. The experiment in a line: Test of Efficacy on Phyllotreta striolata (spray on Qing geng cai seedlings). The conditions noted are these: 168 h, sprayed to Qing geng cai seedlings, adults, after 7 days, read-out: insecticidal rate. The procedure: (§1) 5 parts of the heteroaryl azole compound of the present invention, 93.6 parts of dimethylformamide, and 1.4 parts of polyoxyethylene alkyl aryl ether were mixed and dissolved to prepare emulsion (I) containing 5% of the active ingredient.
(§2) An insecticidal rate was calculated according to the following expression: Insecticidal rate (%)=(The number of dead insects/The number of tested insects)×100
The emulsion (I) was diluted with water such that the concentration of the compound of the present invention was 125 ppm to prepare a test chemical. The test chemical was sprayed to Qing geng cai seedlings (at the seventh true leaf stage) planted in 10-cm pots. The Qing geng cai seedlings were dried in air and then placed in a plastic cup. Ten Phyllotreta striolata adults were released thereto. The plastic cup was stored in a thermostat chamber having a temperature of 25° C. and a humidity of 65%. Life and death were determined after 7 days from the release of the insects, and the insecticidal rate was calculated. The test was conducted in duplicate.

The test system of a further assay is Plutella xylostella. The experiment in a line: Test of Efficacy on Plutella xylostella (cabbage leaf dip). The following applies: foliar, 72 h, cabbage leaves dipped 30 seconds, second instar larvae, after 3 days, read-out: insecticidal rate. The procedure:
5 parts of the heteroaryl azole compound of the present invention, 93.6 parts of dimethylformamide, and 1.4 parts of polyoxyethylene alkyl aryl ether were mixed and dissolved to prepare emulsion (I) containing 5% of the active ingredient. An insecticidal rate was calculated according to the following expression: Insecticidal rate (%)=(The number of dead insects/The number of tested insects)×100 The emulsion (I) was diluted with water such that the concentration of the compound of the present invention was 125 ppm. Cabbage leaves were dipped in the dilution for 30 seconds. The resulting cabbage leaves were placed in a petri dish. Five second instar larvae of Plutella xylostella were released thereto. The petri dish was placed in a thermostat chamber having a temperature of 25° C. and a humidity of 60%. Life and death were determined after 3 days from the release of the insects, and the insecticidal rate was calculated. The test was conducted in duplicate.

The subject of the next assay is Mythimna separata. The assay is described as follows: Test of Efficacy on Mythimna separata (test feed). The following applies: 1 μl of emulsion (I) (5% active ingredient) in 0.8 g artificial feed; second instar larvae; 25° C.; fifth day. The procedure: 5 parts of the heteroaryl azole compound of the present invention, 93.6 parts of dimethylformamide, and 1.4 parts of polyoxyethylene alkyl aryl ether were mixed and dissolved to prepare emulsion (I) containing 5% of the active ingredient. For a control, 98.5 parts of dimethylformamide and 1.5 parts of polyoxyethylene alkyl aryl ether were mixed and dissolved to prepare emulsion (II). An insecticidal rate was calculated according to the following expression: Insecticidal rate (%)=(The number of dead insects/The number of tested insects)×100 0.8 g of commercially available artificial feed (Insecta LFS, manufactured by Nosan Corp.) and 1 μl of the emulsion (I) were well mixed to obtain test feed. A plastic test container (capacity: 1.4 ml) was packed with 0.2 g of the test feed per treatment plot. Then, two second instar larvae of Mythimna separata were inoculated to each treatment plot. A plastic lid was put on the test container so as to prevent escape of the second instar larvae of Mythimna separata. The container was placed in a thermostat chamber of 25° C. On the fifth day, the insecticidal rate and the food intake were examined. The test was conducted in duplicate. The insecticidal rate and the food intake of a control plot were examined in the same way as in Test Example 1 except that the emulsion (I) was changed to the emulsion (II).

A further assay relates to Aphis craccivora. The experiment in a line: Test of Efficacy on Aphis craccivora (spray on black-eyed peas). The conditions noted are these: 96 h, 125 ppm, sprayed to black-eyed peas, nymphs, after 4 days, read-out: insecticidal rate. The protocol: as §1, §2
Seedlings of black-eyed peas were raised in 10-cm pots. Aphis craccivora nymphs were inoculated onto primary leaves. The emulsion (I) was diluted with water such that the concentration of the compound of the present invention was 125 ppm. The dilution was sprayed to the black-eyed peas parasitized by the Aphis craccivora nymphs. The black-eyed peas were placed in a thermostat chamber having a temperature of 25° C. and a humidity of 60%. Life and death of Aphis craccivora were determined after 4 days from the spraying, and the insecticidal rate was calculated. The test was conducted in duplicate.

For the compound `CCS(=O)(=O)c1cc(-c2ncccn2)cnc1-c1ncn(CC(F)(F)C(F)(F)C(F)(F)F)c1C` [c-5], the pest or weed control at 125 ppm in the assay on Phyllotreta striolata, in the assay with Plutella xylostella and in the assay on Aphis craccivora was at least 80% each time. In addition, in the assay with Mythimna separata, the “insecticidal rate or food intake as compared with the control plot” value was “insecticidal rate of 100% for Mythimna separata or a food intake of 10% or less as compared with the control plot”.

As to `CCS(=O)(=O)c1cc(-c2ncccn2)cnc1-c1ncn(/C=C(\F)C(F)(F)C(F)(F)F)c1C` [c-8], the pest or weed control at 125 ppm in the assay on Phyllotreta striolata and with Plutella xylostella was at least 80% throughout.

In the case of `CCS(=O)(=O)c1cc(-c2ncccn2)cnc1-c1ncn(/C=C(\F)C(F)(F)I)c1C` [c-9], the pest or weed control at 125 ppm with Phyllotreta striolata and with Plutella xylostella was at least 80% each time.

Turning to `CCS(=O)(=O)c1cc(-c2ncccn2)cnc1-c1ncn(-c2ccc(OC(F)(F)F)cc2)n1` [d-1], the pest or weed control at 125 ppm in the assay on Phyllotreta striolata and with Plutella xylostella was at least 80% each time.

Turning to `CCS(=O)(=O)c1cc(-c2ccccn2)cnc1-c1ncn(-c2ccc(OC(F)(F)F)cc2)n1` [d-6], the pest or weed control at 125 ppm in the assay on Phyllotreta striolata, with Plutella xylostella and in the assay on Aphis craccivora was at least 80% in each case. In addition, in the assay with Mythimna separata, the “insecticidal rate or food intake as compared with the control plot” value is listed as “insecticidal rate of 100% for Mythimna separata or a food intake of 10% or less as compared with the control plot”.

As for `CCS(=O)(=O)c1cc(C2CC2)cnc1-c1ncn(-c2ccc(OC(F)(F)F)cc2)n1` [d-7], the pest or weed control at 125 ppm in the assay on Phyllotreta striolata and with Plutella xylostella was at least 80% throughout.

Consider `CCS(=O)(=O)c1cc(C2CC2)cnc1-c1cn(-c2ccc(OC(F)(F)F)cc2)cn1` [d-19, 5-cyclopropyl-3-(ethylsulfonyl)-2-(1-(4-(trifluoromethoxy)phenyl)-1H-imidazol-4-yl)pyridine], for which the pest or weed control at 125 ppm with Phyllotreta striolata, in the assay on Plutella xylostella and with Aphis craccivora was at least 80% throughout. Also, the “insecticidal rate or food intake as compared with the control plot” value with Mythimna separata is reported as “insecticidal rate of 100% for Mythimna separata or a food intake of 10% or less as compared with the control plot”.

Regarding `CCS(=O)(=O)c1cc(-c2ccccn2)cnc1-c1cn(-c2ccc(OC(F)(F)F)cc2)cn1` [d-20], the pest or weed control at 125 ppm in the assay with Phyllotreta striolata, in the assay with Plutella xylostella and in the assay with Aphis craccivora was at least 80% each time. For the same compound, the “insecticidal rate or food intake as compared with the control plot” value with Mythimna separata was “insecticidal rate of 100% for Mythimna separata or a food intake of 10% or less as compared with the control plot”.

On to `CCS(=O)(=O)c1cc(C2CC2)c[n+]([O-])c1-c1cn(-c2ccc(OC(F)(F)F)cc2)cn1` [d-22], for which the pest or weed control at 125 ppm in the assay with Phyllotreta striolata, with Plutella xylostella and in the assay on Aphis craccivora was at least 80% throughout.

Turning to `CCS(=O)(=O)c1cc(-c2ccccn2)cnc1-c1ncn(-c2ccc(OC(F)(F)F)cc2)c1C` [d-25], the pest or weed control at 125 ppm in the assay with Plutella xylostella and with Aphis craccivora was at least 80% each time. In addition, the “insecticidal rate or food intake as compared with the control plot” value in the assay on Mythimna separata was “insecticidal rate of 100% for Mythimna separata or a food intake of 10% or less as compared with the control plot”.

As to `CCS(=O)(=O)c1ccc(-n2cncn2)nc1-c1ncn(-c2ccc(OC(F)(F)F)cc2)c1Br` [d-26], the pest or weed control at 125 ppm in the assay with Plutella xylostella and in the assay on Aphis craccivora was at least 80% each time. The “insecticidal rate or food intake as compared with the control plot” value with Mythimna separata is on record as “insecticidal rate of 100% for Mythimna separata or a food intake of 10% or less as compared with the control plot”.

On to `CCS(=O)(=O)c1ccc(-n2cncn2)nc1-c1ncn(-c2ccc(OC(F)(F)F)cc2)c1C` [d-27], for which the pest or weed control at 125 ppm in the assay on Plutella xylostella and in the assay on Aphis craccivora was at least 80% in each case. The “insecticidal rate or food intake as compared with the control plot” value in the assay on Mythimna separata is reported as “insecticidal rate of 100% for Mythimna separata or a food intake of 10% or less as compared with the control plot”.
